# Test results reported in patent US20110117195A1, “METHOD FOR IMPROVING MYOCARDIAL INFARCTION BY INTRAMYOCARDIAL OR TRANSENDOCARDIAL INJECTION OF PEPTIDE NANOFIBERS” (National Cheng Kung University, priority 2009, published 2011).
# Tests used:
# Format in all cases: in vivo
# [1] = tested on: Lanyu mini-pig models of experimental myocardial infarction (MI); experiment: Immunohistological index (myocardial capillary density) after coronary artery ligation in mini-pigs
# Experimental: Sexually matured Lanyu mini-pigs (about 5 months old, body weight: 21.8±3.1 kg), were divided into 3 groups: the first group is sham operation, suturing was performed without ligation (n=4); the second group is mid-left coronary artery ligation (for simulating myocardial infarction, MI) immediately followed with injection of normal saline solution (MI+NS, n=4); and the third group is mid-left coronary artery ligation immediately followed with injection of 1% peptide nanofibers solution (MI+NFs, n=5) in the entire infarcted area with a total of 2 ml NFs divided by 40 delivery sites (50 ul for each site), wherein the sequence of peptide NFs is AcN-RARADADARARADADA-NH2. Cardiac functions were assessed by echocardiography immediately after MI and together with cardiac catheterization 4 weeks later. […]
# [2] = tested on: Lanyu mini-pig models of experimental myocardial infarction (MI); experiment: Cardiac catheterization (hemodynamic parameters) after coronary artery ligation in mini-pigs
# Experimental: (§1) Sexually matured Lanyu mini-pigs (about 5 months old, body weight: 21.8±3.1 kg), were divided into 3 groups: the first group is sham operation, suturing was performed without ligation (n=4); the second group is mid-left coronary artery ligation (for simulating myocardial infarction, MI) immediately followed with injection of normal saline solution (MI+NS, n=4); and the third group is mid-left coronary artery ligation immediately followed with injection of 1% peptide nanofibers solution (MI+NFs, n=5) in the entire infarcted area with a total of 2 ml NFs divided by 40 delivery sites (50 ul for each site), wherein the sequence of peptide NFs is AcN-RARADADARARADADA-NH2. Cardiac functions were assessed by echocardiography immediately after MI and together with cardiac catheterization 4 weeks later.
# (§2) In the preferred embodiment of the present invention, the peptide nanofibers solution contains peptide nanofibers which can form a biologically compatible peptide hydrogel, wherein the biologically compatible peptide hydrogel is prepared by: dissolving powders of the self-assembling peptide nanofibers in a buffer solution, such as pH 7.4 phosphate buffered saline (PBS) solution; and mixing the powders of the self-assembling peptide nanofibers with the buffer solution by sonication (100 W, 10 mins), so as to obtain a hydrogel solution of the biologically compatible peptide hydrogel (i.e. the peptide nanofibers solution), wherein the percentage of the self-assembling peptide nanofibers in the solution can be 0.1-10% by weight of the solution, preferably 0.5-5% by weight, and more preferably 1.0% by weight; and wherein the volume of the solution of the biologically compatible peptide hydrogel is preferably 0.1-10 ml, and more preferably 2 ml. In the embodiment, the percentage of the self-assembling peptide nanofibers in the solution is 1.0% by weight, and the volume of the solution of the biologically compatible peptide hydrogel is 2 ml. Meanwhile, the buffer solution (PBS) is added with monovalent metal cation compound of a concentration sufficient to promote the self-assembly of the self-assembling peptide nanofibers, wherein the monovalent metal cation is selected from the group consisting of: lithium (Li^+), sodium (Na^+) and potassium (K^+). In the embodiment, the monovalent metal cation compound is sodium […].
# (§3) Besides, the pharmaceutical composition of the second and third groups is injected to a plurality of delivery sites in the entire infarcted area of myocardium tissue, respectively, wherein the number of the delivery sites is preferably ranged between 10 and 100, and more preferably 40, without limitation thereto. The plurality of delivery sites in the entire infarcted area is advantageous to increase the distribution density to support materials (e.g. peptide nanofibers). In addition, the infarcted area of myocardium tissue is preferably a mid-left portion of myocardium tissue of an injured heart with myocardial infarction, but also can be any infarcted area of the heart. The self-assembling peptide nanofibers (AcN-RARADADARARADADA-NH2) are 16 amino acids in length, but also can be 8-200 amino acids in length, and preferably 12-32 amino acids in length. […]
# [3] = tested on: Lanyu mini-pig models of experimental myocardial infarction (MI); experiment: Echocardiography after coronary artery ligation in mini-pigs
# Experimental: as §1, §2, §3
# [4] = Table 1, 28 days after infarction, 2 ml intramyocardial in 40 sites
# [5] = Table 1, 28 days after infarction, 2 ml intramyocardial in 40 sites, in mmHg/s (unit assumed)
# [6] = one month after MI, P<0.01 vs MI+NS
substance,measurement,setting,value
"AcN-RARADADARARADADA-NH2 (Ac-RARADADARARADADA-NH2) [MI + NFs, self-assembling peptide nanofibers forming a hydrogel]",M.C.D. (myocardial capillary density),[1]; [4],286 ± 179 number/mm^2
same,myocardial capillary density (M.C.D.),"[1]; one month after MI, in words",significantly increased
same,Emax (maximal chamber elasticity),"[2]; Table 1, 28 days after infarction, 2 ml intramyocardial in 40 sites, in mmHg/mL (unit assumed)",2.80 ± 1.43
same,+dP/dt Max,[2]; [5],1458 ± 154
same,−dP/dt Max,[2]; [5],−1850 ± 94
same,diastolic function and ventricular remodeling,"[2]; one month after MI, end-diastolic and end-systolic volumes, −dP/dt Max, Emax",significantly improved
same,systolic function (ejection fraction and +dP/dt Max) compared to the (MI+NS) group,"[2]; one month after MI, no significant difference",only modest improvement
same,E.F. (ejection fraction),[3]; [4],47 ± 8
same,"IVS-D (thickness of inter-ventricular septum, diastolic)",[3]; [4],0.6 ± 0.12 cm
same,"IVS-S (thickness of inter-ventricular septum, systolic)",[3]; [4],0.7 ± 0.13 cm
same,thickness of inter-ventricular septum on diastolic (IVS-D) phase,[3]; [6],0.6 ± 0.12 cm
same,thickness of inter-ventricular septum on systolic (IVS-S) phase,[3]; [6],0.7 ± 0.13 cm
